According to patent publication US20180036295A1, “METHODS FOR TREATING PROTEINOPATHIES” (Genzyme Corporation, priority 2015, published 2018):

Columns and labels:
Assay type in all cases: in vivo, mouse
Gba1^D409V/D409V mice [1] = experiment: NOR and FC tests in Gba1^D409V/D409V mice with Compound 2 (Example 34); conditions: diet containing Compound 2
Procedure: Gba1^D409V/D409V mice are bred and treated substantially as described in Example 24. Mice are fed a control diet or a diet containing a quinuclidine compound substantially as described in Example 25, except that the compound administered is Compound 2.
The NOR test and the FC test are performed substantially as described in Example 25.

[2] = test system: protein aggregates (ubiquitin, α-synuclein and/or protein tau); experiment: Protein aggregation in brains of Gba1^D409V/D409V mice with Compound 2 (Example 35); conditions: diet containing Compound 2
Procedure: Wild-type (WT) and Gba1^D409V/D409V mice are fed the control diet or a diet containing a quinuclidine compound substantially as described in Example 27, except that the compound administered is Compound 2.
The accumulation of proteins (ubiquitin, α-synuclein and protein tau) is determined by hippocampal quantification and protein immuoreactivity as described in Example 27.

[3] = Tissue distribution of Compound 1 in brain and liver after oral administration in food; conditions: Gba1^D409V/D409V mice
Procedure: Gba1^D409V/D409V mice (harboring a point mutation at residue 409 in the murine Gba1 gene) were bred under a protocol approved by the Institutional Animal Care and Use Committee. Treatments were administered as described and the animals were humanely sacrificed at pre-determined time points or upon reaching a humane endpoint.
A subset of Gba1^D409V/D409V mice received Compound 1 administered in food using a formulation calculated to provide 60 mg/kg/day. Drug administration was initiated when pups were weaned at 4 weeks of age and continued until euthanasia at 4 or 10 months of age. The concentration of Compound 1 in brain and liver tissues was determined by mass spectrometry (see e.g. Ramanathan et al. “The emergence of high-resolution MS as the premier analytical tool in the pharmaceutical bioanalysis arena” Bioanalysis. March 2012; 4(5):467-469).

Gba1^D409V/D409V mice [4] = experiment: Novel object recognition (NOR) test in Gba1^D409V/D409V mice; conditions: 60 mg/kg/day in food from 4 weeks of age, tested at 3 months; FIG. 1
Procedure: (§1) Gba1^D409V/D409V mice were bred and treated according to Example 24.
(§2) Mice were fed the control diet or the Compound 1 diet as described in Example 24.
In the NOR test, […] wild type (WT) and Gba1^D409V/D409V mice were dosed with Compound 1 starting at 4 weeks of age and were subjected to the NOR test at 3 months (2 months post-treatment).
Mice were individually habituated to explore an open-field box for 5 minutes. During the first training session (T1), two identical objects were symmetrically placed into the open field 14 inches from each other. Animals were allowed to explore for 5 minutes. The number of investigations was recorded by a blinded investigator. After a 24 hour retention period, animals were tested (T2) for their recognition of a novel object. Mice were placed back into the open-field box for 5 minutes, and the time spent investigating the familiar and novel objects was recorded.
Statistical analyses were performed by Student's t-test or analysis of variance (ANOVA) followed by Newman-Keuls' post-hoc test. Preference for novelty was defined as investigating the novel object more than 50% of the time by a one-sample t-test. All statistical analyses were performed with GraphPad Prism v4.0 (GraphPad Software, San Diego, Calif.). Values of p<0.05 were considered significant.

[5] = test system: mice overexpressing A53T α-synuclein; experiment: Novel object recognition (NOR) test in A53T mice; conditions: A53T mice dosed from 6 weeks of age, tested at 4.5 months; FIG. 3
Gba1^D409V/D409V mice [6] = experiment: Fear conditioning (FC) tests in Gba1^D409V/D409V mice; conditions: ten month-old mice, 60 mg/kg/day in food
From the text: as §1, §2
Ten month-old wild type (WT) and Gba1^D409V/D409V mice were subjected to FC memory tests. For the FC tests, mice were trained in four of the Med Associates® Near Infrared Fear Conditioning System chambers (St. Albans, Vt.). Mice were placed in the contextual fear chamber in “Context A,” which consists of lighting, a neutral background and a stainless steel grid floor. The mice were trained with a 3-trial delay-cued protocol as defined below. The mice were first given 2 minutes to explore the chamber in Context A before a conditioned stimulus (CS) of a 2000 Hz cue was given. Thirty seconds later a one second unconditioned stimulus (US) of 0.6 mA foot shock was applied. With an inter-trial interval (ITI) of 30 sec, this US-CS response was repeated three times. After a 24 hour retention period, mice were brought back to the testing room and habituated to the room for 1 hour. The mice were again placed in Context A for 5 minutes and freezing to the context was recorded. Freezing (defined as the lack of movement, except for respiration) was recorded using a near-infrared camera system. […] Again, freezing to the novel environment and the cue were assessed with the near infrared camera system. […]

[7] = test system: mice overexpressing A53T α-synuclein; experiment: Fear conditioning (FC) tests in A53T mice; conditions: eight months of age
protein tau aggregates = experiment: Hippocampal quantification of protein tau aggregates in A53T mice; conditions: 8 months of age, FIG. 14
Procedure: For histological analysis, mice were perfused with cold PBS. Brains were removed and post-fixed in 10% (v/v) neutral buffered formalin for 48 hours. Tissues were then placed in 30% sucrose, embedded and sectioned at 20 μm in a cryostat. Some tissues were pretreated with proteinase K (1:4 dilution; DAKO, Carpinteria, Calif.) for 7 minutes at room temperature to expose α-synuclein and other aggregated proteins. […] For α-synuclein aggregate quantification, a cyanine 3-tyramide signal amplification kit was used (PerkinElmer, Waltham, Mass.). […]
For morphometric analysis, sections were imaged with a SPOT camera (Diagnostic Instruments, Sterling Heights, Mich.) paired with a Nikon Eclipse E800 fluorescence microscope equipped with a 20λ objective lens. […] For ubiquitin and tau quantification, the same threshold was used for all images such that the aggregates were positively counted and the threshold area was recorded for each image in pixels. For α-synuclein quantification, each image was analyzed individually using a range of threshold values to quantify the area of the aggregates accurately and eliminate variable background signals. […] The percent threshold area was calculated and expressed as mean±SEM. […]

[8] = test system: symptomatic Gba1^D409V/D409V mice; experiment: NOR test in post-symptomatic Gba1^D409V/D409V mice; conditions: treatment from approximately 6 months of age, tested at 12 months, n=13, p<0.05; FIG. 16
Procedure: Gba1^D409V/D409V mice were bred and treated according to Example 24. Mice were fed the control diet or the Compound 1 diet as described in Example 24, except that drug administration was initiated when animals were approximately 6 months of age, and continued until euthanasia at 13 months of age.
Hippocampal memory was evaluated with the NOR test according to Example 25, except that the mice were tested at 6 months of age (before treatment) and again 6 months later, at 12 months of age (after treatment).

human A53T-α-synuclein = experiment: Subcellular localization of α-synuclein in cortical tissue homogenates of A53T mice (serial fractionation, ELISA); conditions: cortex, 8 months of age
[9] = test system: protein aggregates (ubiquitin, α-synuclein and/or protein tau); experiment: Protein aggregation in brains of post-symptomatic Gba1^D409V/D409V mice (Example 33); conditions: administration initiated after symptoms of cognitive impairment, approximately 6 months of age
Procedure: Wild-type (WT) and Gba1^D409V/D409V mice are bred and treated substantially as described in Example 27, except that drug administration is initiated when animals are symptomatic for cognitive impairment, e.g. at approximately 6 months of age.
The accumulation of proteins (ubiquitin, α-synuclein and protein tau) is determined by hippocampal quantification and protein immunoreactivity substantially as described in Example 27.

[10] = in food, 60 mg/kg/day, mass spectrometry

Row | Structure (SMILES) | memory deficit (NOR and FC tests) (Gba1^D409V/D409V mice [1]) | accumulation of protein aggregates (ubiquitin, α-synuclein and/or protein tau) in the brains [2] | concentration in the brain as percentage of the concentration in the liver ([3]; in food, 60 mg/kg/day) | tissue exposure in the cortex [3, 10] | tissue exposure in the liver [3, 10] | blood-brain barrier penetration ([3]; oral in food) | NOR test, target investigations of novel object during testing (T2) (Gba1^D409V/D409V mice [4]) | NOR test, target investigations of novel object during testing (T2) [5] | FC test, contextual memory (freezing responses) (Gba1^D409V/D409V mice [6]; FIG. 2A) | FC test, cued memory (Gba1^D409V/D409V mice [6]; FIG. 2B) | FC test, contextual memory (freezing responses) ([7]; FIG. 4A) | FC test, cued memory ([7]; FIG. 4B) | level of protein tau aggregates in hippocampus (protein tau aggregates) | NOR test, investigation of novel object during testing trial [8] | level of insoluble α-synuclein (human A53T-α-synuclein; SDS-soluble fraction, n=14, P<0.01, FIG. 11C) | level of cytosolic soluble α-synuclein (human A53T-α-synuclein; Tris-soluble fraction, n=14, P=0.17, FIG. 11A) | level of membrane-associated α-synuclein (human A53T-α-synuclein; Triton-soluble fraction, n=14, P<0.05, FIG. 11B) | accumulation of protein aggregates (ubiquitin, α-synuclein and/or protein tau) in the brains [9]
1 | CC(C)(NC(=O)O[C@@H]1CN2CCC1CC2)c1csc(-c2ccc(F)cc2)n1 [Compound 2, (S)-quinuclidin-3-yl 2-(2-(4-fluorophenyl)thiazol-4-yl)propan-2-ylcarbamate] | improve memory deficit | measurable reduction |  |  |  |  |  |  |  |  |  |  |  |  |  |  |  | 
2 | CC(C)(NC(=O)OC1CN2CCC1CC2)c1cccc(-c2ccc(F)cc2)c1 (stereo not drawn) [Compound 1, 1-azabicyclo[2.2.2]oct-3-yl [2-(4′-fluorobiphenyl-3-yl)propan-2-yl]carbamate] |  |  | approximately 2% | 217±12 ng/g tissue | 10512±603 ng/g tissue | crosses the blood-brain barrier | trend to reversal of their memory deficit | trend to reversal of their memory deficit | improved the freezing responses | no effect | improved the freezing responses | only a marginal effect | significant reduction | recovered the ability to investigate the unfamiliar object | 81±3 % of the control value | 114±8 % of the control value | 75±8 % of the control value | measurable reduction
